This experiment concerns INS-1E cytokine-induced caspase-3/7, Caspase-Glo luminescence, 48 h. The experiment can be described thus: suppression of cytokine-driven beta-cell apoptosis – INS-1E rat cells, luminescence, orthogonal assay for beta-cell apoptosis protection project, dose response (AID 463206).

Active and inactive are the calls of the source.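 Rule for the calls: active = caspase luminescence falls with dose and the half-maximal concentration AC50 from the fitted curve is at or below a set limit; inconclusive = flat fit at 30 to 70% signal loss, or invalid fit; inactive = AC50 above the limit, or signal rises instead.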

In general, AC50 refers to the concentration giving half of the maximal activity seen. Take `CC(C)(C)OC(=O)NCCCCCc1cn([C@@H](CO)C(=O)NCCCCCCCCCCC(=O)N2CCN(C(=O)OC(C)(C)C)CC2)nn1`: the AC50 was > 26 µM (inactive).
As for `Cc1cc(C)n(-c2nc3ccccc3c(=O)n2OCC#N)n1`, the AC50 is > 26 µM (inactive).
Regarding `Oc1ccc(-c2n[nH]c(C(F)(F)F)c2-c2ccccc2)c(O)c1`, the AC50 is > 26 µM (inactive).
With `CCN1CCN(Cc2ccc(NC(=O)c3cc(NC(=O)C(=O)c4c[nH]c5ccccc45)cc(OC)c3)cc2C(F)(F)F)CC1`, the AC50 is > 26 µM (inactive).
Turning to `COc1ccc(C(C(=O)NC2CCCCC2)N(C(=O)CCl)c2cccc(Cl)c2)cc1` (stereo not drawn), the AC50 is > 26 µM (inactive).
For `O=[N+]([O-])c1cc(CN2CCN(c3ccccc3)CC2)c(O)c2ncccc12`, the AC50 was > 26 µM (inactive).
`COC(=O)c1ccccc1NC1=C/C(=N\S(=O)(=O)c2ccc(C(=O)O)cc2)c2ccccc2C1=O`: the AC50 is > 26 µM (inactive).
Regarding `CCCCCn1c(=O)c(C(=O)NC(C)c2ccccc2)c(O)c2ccccc21` (stereo not drawn), the AC50 is > 26 µM (inactive).
On to `c1ccc(C(c2ccccc2)N2CCN(c3nc4ccccc4n4cnnc34)CC2)cc1`, for which the AC50 was > 26 µM (inactive).
On to `C/C(=N\NC(=O)c1ccc(F)cc1)c1ccccn1`, for which the AC50 was > 26 µM (inactive).
For `CC(C)(C)c1nnc(N/N=C/c2cc(Br)ccc2O)n(N)c1=O`, the AC50 is > 26 µM (inactive).
Consider `Nc1c(C(=O)Nc2ccc(S(=O)(=O)N3CCCC3)cc2)sc2nc3cc4c(cc3cc12)CCC4`, for which the AC50 was > 26 µM (inactive).
Turning to `Cc1ccc(-n2ncc3c2CCCC3NC(=O)c2ocnc2C)cc1C` (stereo not drawn), the AC50 was > 26 µM (inactive).
Consider `COc1cccc(/C=N/Nc2ncnc3scc(-c4ccccc4)c23)c1O`, for which the AC50 is > 26 µM (inactive).
For the compound `Oc1ccc(Br)cc1/C=N/Nc1ccccn1`, the AC50 is > 26 µM (inactive).
The result for `CCCNC1=C(N(C(C)=O)c2cccc(F)c2)C(=O)c2ccccc2C1=O` reads > 26 µM (inactive); that for `Nc1c(C(=O)Nc2ccc3c(c2)OCCO3)nnn1Cc1ccccc1Cl`, > 26 µM (inactive).
Consider `Oc1ccc(N=Nc2ccc3c(c2)OCCO3)c2ncccc12`, for which the AC50 was > 26 µM (inactive).
Take `Cc1ccc2nc(NC(=O)c3ccccn3)sc2c1`: the AC50 is > 26 µM (inactive).
With `Cc1ccc2nc(NC(=O)/C=C/c3ccc4c(c3)OCO4)sc2c1`, the AC50 was > 26 µM (inactive).
Regarding `CCCCCCCCNC(C)C(O)c1ccc(SC(C)C)cc1` (stereo not drawn), the AC50 is > 26 µM (inactive).
As for `Cc1ccc(NC(=O)/C=C/c2ccc([N+](=O)[O-])s2)c(C)c1`, the AC50 was 1.17 µM.
Regarding `O=[N+]([O-])c1ccc(NC(=S)NCCc2ccc(Cl)cc2)cc1`, the AC50 is > 26 µM (inactive).
Take `O=C(NNc1ccccc1Br)C(O)(c1cccc(C(F)(F)F)c1)c1cccc(C(F)(F)F)c1`: the AC50 was > 26 µM (inactive).
Turning to `CCCCC(=O)NC(c1ccccc1)c1ccc2cccnc2c1O` (stereo not drawn), the AC50 is > 26 µM (inactive).
The result for `O=C1N/C(=N\N=C\c2cccnc2)SC1Cc1ccc(SC(F)F)cc1` (stereo not drawn) reads > 26 µM (inactive); that for `CC(C)(C)c1ccc(C(O)CCCN2CCC(C(O)(c3ccccc3)c3ccccc3)CC2)cc1` (stereo not drawn), > 26 µM (inactive).
Take `Cc1cc[n+](C(C)C(=O)c2ccc(-c3ccccc3)cc2)cc1` (stereo not drawn): the AC50 was > 26 µM (inactive).
Consider `CN(C)c1cc[n+](CC(=O)c2ccc(-c3ccccc3)cc2)cc1`, for which the AC50 was > 26 µM (inactive).
As for `N/C(=N\OC(=O)c1ccc(Cl)cc1Cl)c1ccccn1`, the AC50 is > 26 µM (inactive).
Take `COc1ccc(C(=O)NC(=S)NNC(=O)c2cnccn2)cc1`: the AC50 was > 26 µM (inactive).
On to `CCOc1ccc(S(=O)(=O)N(C)c2ccc(OCC(=O)Nc3nc4ccccc4s3)cc2)cc1`, for which the AC50 is > 26 µM (inactive).
On to `CC(=O)NC(c1cccc([N+](=O)[O-])c1)c1ccc2cccnc2c1O` (stereo not drawn), for which the AC50 is > 26 µM (inactive).
The result for `c1ccc(CNc2nc(-c3ccccn3)nc3ccccc23)cc1` reads > 26 µM (inactive).
`Nc1ccccc1C#CC(=O)c1ccccc1`: the AC50 is > 26 µM (inactive).
As for `N#CC(C#N)=NNc1ccc(-n2ccc(C(F)(F)F)n2)cc1`, the AC50 is > 26 µM (inactive).
The result for `COc1cc(C(=O)N/N=C(\C)c2ccccn2)cc(OC)c1OC` reads > 26 µM (inactive); that for `COc1ccc(Cc2nnc(N/N=C/c3ccccc3O)[nH]c2=O)cc1OC`, > 26 µM (inactive); that for `C/C(=N\Nc1nc(C)cc(-c2ccccc2)n1)c1ccc(F)cc1`, > 26 µM (inactive).
Turning to `Cc1nn(Cc2c(Cl)cccc2Cl)c(C)c1NC(=O)c1cn(-c2ccccc2)nc1-c1ccccc1`, the AC50 is > 26 µM (inactive).
Regarding `COc1ccc(-c2ccc3c(c2)S(=O)(=O)c2cccc(C(=O)NCCOc4ccccc4Cl)c2C3=O)cc1OC`, the AC50 is > 26 µM (inactive).
As to `CCC(C)Sc1ccc(-c2nc3ccc(C)cn3c2NCc2ccccc2)cc1OC` (stereo not drawn), the AC50 is > 26 µM (inactive).
On to `CC(NC(=O)c1cc(COc2ccc3ncccc3c2)on1)c1ccc(F)cc1` (stereo not drawn), for which the AC50 was > 26 µM (inactive).
Take `CCN(CC)S(=O)(=O)c1cc([N+](=O)[O-])ccc1NNC(=O)Nc1ccc(Cl)c(Cl)c1`: the AC50 was > 26 µM (inactive).
In the case of `CCC(O)C1CCN(C(=O)c2cc(COc3ccc4ncccc4c3)on2)CC1` (stereo not drawn), the AC50 was > 26 µM (inactive).
For `CC[C@H](C)Cc1cn([C@@H](CCCCNC(=O)OC(C)(C)C)C(=O)NCCCCCCCCCCC(=O)N2CCN(C(=O)OC(C)(C)C)CC2)nn1`, the AC50 was > 26 µM (inactive).
For `Cc1cc(C)cc(NC(=O)/C(C#N)=C/c2cn(CC(=O)NCc3ccco3)c3ccccc23)c1`, the AC50 is > 26 µM (inactive).
With `O=C(Nc1cccnc1)C1(F)C(F)(F)C(F)(F)C(F)(F)C(F)(F)C1(F)F`, the AC50 was > 26 µM (inactive).
The result for `COc1ccc(-c2n(Cc3ccccc3)c3ccccc3[n+]2Cc2ccccc2)cc1` reads > 26 µM (inactive); that for `c1ccc(-c2nc(N3CCCCCC3)c3ccccc3n2)nc1`, > 26 µM (inactive); that for `O=C(/C(=C/c1ccc(Cl)cc1)c1nc2ccccc2[nH]1)c1cccs1`, > 26 µM (inactive).
As for `CC1=NNC(=O)/C1=C\c1cn(-c2ccccc2)nc1-c1ccc(Cl)cc1`, the AC50 was > 26 µM (inactive).
As for `Oc1c(CN2CCOCC2)cc(COCc2ccccc2)c2cccnc12`, the AC50 is > 26 µM (inactive).
Turning to `CCN(CC)CCNC(=O)c1ccc(NC(=O)c2cn(-c3ccccc3)nc2-c2cccs2)cc1`, the AC50 is 18.2 µM.
For the compound `COc1ccc(C(=O)C/C(=C\C(=O)c2ccc(C)cc2)c2ccccc2)cc1`, the AC50 is > 26 µM (inactive).
In the case of `O=c1c2ccccc2nc(COc2ccccc2)n1/N=C/c1cc([N+](=O)[O-])ccc1O`, the AC50 is > 26 µM (inactive).
As for `Cc1nc(C)c(C(=O)N/N=C/c2cc(Br)ccc2O)s1`, the AC50 is > 26 µM (inactive).
The result for `CN(C)c1ccc(NC(=S)NC23CC4CC(CC(C4)C2)C3)cc1` reads > 26 µM (inactive); that for `Cc1ccc(F)c([C@H]2C3C=CCC(c4ccccc4)C3C(=O)N2Cc2ccccc2)c1` (stereo partly drawn), > 26 µM (inactive); that for `OC(CNC1CCCCC1)COCCOc1ccc(Br)cc1` (stereo not drawn), > 12 µM (inactive).
Turning to `COCCC1CCCCN1C(=O)c1cc(COc2ccc(-n3cncn3)cc2)on1` (stereo not drawn), the AC50 is > 26 µM (inactive).
For `C(=N\Nc1ncnc2sc3c(c12)CCC3)/c1cccs1`, the AC50 was > 26 µM (inactive).
Take `CCn1c(C)nc2cc(-c3nnc(-c4c(-c5ccccc5)noc4C)o3)ccc21`: the AC50 was > 26 µM (inactive).
For the compound `CCN1CCN(c2ccc(S(=O)(=O)N3CCCCC3)cc2NC(=O)c2ccc([N+](=O)[O-])s2)CC1`, the AC50 was > 26 µM (inactive).
The result for `Cc1cccn2c(Nc3ccccc3)c(-c3ccccn3)nc12` reads > 26 µM (inactive); that for `CCC(CO)[n+]1c(C)cc(/C=C2\Sc3ccccc3N2Cc2ccccc2)cc1C` (stereo not drawn), > 26 µM (inactive).
`COc1ccc2cc1Oc1ccc(cc1)C[C@H]1c3c(cc(OC)c4c3Oc3c(ccc5c3[C@H](C2)N(C)CC5)O4)CCN1C`: the AC50 is > 26 µM (inactive).
The result for `CC(C(c1cccs1)c1c(N)n(C)c(=O)n(C)c1=O)[N+](=O)[O-]` (stereo not drawn) reads > 26 µM (inactive); that for `Cc1sc2ncnc(NCC3COc4ccccc4O3)c2c1C` (stereo not drawn), > 26 µM (inactive); that for `CC(=O)Nc1sc2c(c1-c1nc3ccccc3s1)CN(C(C)C)CC2`, > 26 µM (inactive).
In the case of `Nc1nc(-c2ccccn2)nc(N)c1Cc1c(F)cccc1Cl`, the AC50 was > 26 µM (inactive).
As to `CCC(=O)NC(c1cc(Cl)c2cccnc2c1O)C1CC1` (stereo not drawn), the AC50 was > 26 µM (inactive).
With `Cc1ccc(C(=O)N/C(=C\c2ccc(-c3ccccc3[N+](=O)[O-])o2)C(=O)NCCCN2CCOCC2)cc1` the figure was > 26 µM (inactive).
On to `Cc1ccc(NC(=O)c2c(C(F)(F)F)nn(C)c2SCc2cccc(C(F)(F)F)c2)cc1C`, for which the AC50 is > 26 µM (inactive).
As for `O=[N+]([O-])c1ccc(O)c(/C=N/Nc2nc3ccccc3[nH]2)c1`, the AC50 is > 26 µM (inactive).
For the compound `NC(N)=NC(N)=Nc1ccc(SC(F)(F)F)cc1`, the AC50 is > 26 µM (inactive).
On to `Cc1ccc(-c2sc(-c3ccccc3)nc2CC(=O)Nc2ccccc2F)cc1`, for which the AC50 is > 26 µM (inactive).
As to `N=c1c2c(n(Cc3ccc(Br)cc3)c3c1CCC3)CCCC2`, the AC50 is > 26 µM (inactive).
On to `O=C(N/N=C/c1cc(Cl)ccc1O)C(=O)Nc1ccccc1OC(F)(F)C(F)F`, for which the AC50 is > 26 µM (inactive).
As for `Cc1nc2ccccc2n1Cc1ccc(Br)cc1`, the AC50 was > 26 µM (inactive).
In the case of `NC1=NC[C@@H](CC2CCCCC2)N1CCc1cc(C(F)(F)F)cc(C(F)(F)F)c1`, the AC50 is > 26 µM (inactive).
On to `COc1cnc(-c2ccccn2)nc1Oc1ccc(C(C)(C)C)cc1`, for which the AC50 was > 26 µM (inactive).
In the case of `O=C(Nc1nc(NC(=O)c2ccco2)n(-c2ccccc2)n1)c1ccccc1`, the AC50 is > 26 µM (inactive).

These data come from PubChem BioAssay AID463206 (Broad Institute, 2010).
